In ChEMBL document CHEMBL1201862, “PubChem BioAssay data set” (2004):
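A five-concentration, 48-hour dose response in 96-well plates underlies each endpoint, interpolated linearly between surrounding concentrations. Abbreviation: GI50, concentration required for 50% inhibition of growth.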 Activity calls are given as the source filed them. No stated cut-off is given here; in the data, active = GI50 up to about 1.1 µM and inactive = higher.

How the values were obtained:
Test in all cases: DTP human tumour cell line panel, 48 h
SF-268 = tested on: SF-268
HCT-15 = tested on: HCT-15
A498 = tested on: A498
SK-MEL-5 = tested on: SK-MEL-5
A549 = tested on: A549
SW-620 = tested on: SW-620
HOP-92 = tested on: HOP-92
EKVX = tested on: EKVX
UACC-257 = tested on: UACC-257
SK-MEL-28 = tested on: SK-MEL-28
HT-29 = tested on: HT-29
SF-539 = tested on: SF-539
COLO 205 = tested on: COLO 205
M14 = tested on: M14
CCRF-CEM = tested on: CCRF-CEM

Structure (SMILES) | GI50 (SF-268) | GI50 (HCT-15) | GI50 (A498) | GI50 (SK-MEL-5) | GI50 (A549) | GI50 (SW-620) | GI50 (HOP-92) | GI50 (EKVX) | GI50 (UACC-257) | GI50 (SK-MEL-28) | GI50 (HT-29) | GI50 (SF-539) | GI50 (COLO 205) | GI50 (M14) | GI50 (CCRF-CEM)
S=c1sc2c(Cl)ncnc2n1-c1ccccc1 | 5.05 µM (inactive) | 15.1 µM | 16.6 µM (inactive) | 16.1 µM (inactive) | 28.8 µM (inactive) | 17.4 µM (inactive) | 19.7 µM (inactive) | 17.7 µM (inactive) | 15.5 µM (inactive) | 11.2 µM (inactive) | 11.4 µM (inactive) | 16.3 µM (inactive) | 14 µM (inactive) | 13.3 µM (inactive) | –
CC1C(c2ccccc2)=CCON1c1ccccc1 (stereo unspecified) | > 100 µM (inactive) | > 100 µM | – | > 100 µM (inactive) | > 100 µM (inactive) | > 100 µM (inactive) | – | > 100 µM (inactive) | > 100 µM (inactive) | > 100 µM (inactive) | > 100 µM (inactive) | > 100 µM (inactive) | > 100 µM (inactive) | > 100 µM (inactive) | > 100 µM (inactive)
NC(=O)/C(=N\NC(=O)C[n+]1ccccc1)C1NC(=O)NC1=O (stereo unspecified) | > 100 µM (inactive) | > 100 µM | > 100 µM (inactive) | > 100 µM (inactive) | > 100 µM (inactive) | 33.6 µM (inactive) | > 100 µM (inactive) | > 100 µM (inactive) | > 100 µM (inactive) | > 100 µM (inactive) | > 100 µM (inactive) | > 100 µM (inactive) | 32.7 µM (inactive) | > 100 µM (inactive) | > 100 µM (inactive)
CCCCN(CC)CC(C(C)=O)c1c(O)c2ccccc2oc1=O (stereo unspecified) | > 100 µM (inactive) | > 100 µM | > 100 µM (inactive) | > 100 µM (inactive) | > 100 µM (inactive) | > 100 µM (inactive) | – | > 100 µM (inactive) | > 100 µM (inactive) | > 100 µM (inactive) | > 100 µM (inactive) | > 100 µM (inactive) | > 100 µM (inactive) | > 100 µM (inactive) | > 100 µM (inactive)
Cc1ccc(S(=O)(=O)OCC23CCC(C4CC42)C2CC23)cc1 (stereo unspecified) | 67.9 µM (inactive) | > 100 µM | 96.2 µM (inactive) | 31.6 µM (inactive) | 80.4 µM (inactive) | > 100 µM (inactive) | 29.2 µM (inactive) | – | 7.01 µM (inactive) | > 100 µM (inactive) | 43.8 µM (inactive) | – | 95.9 µM (inactive) | > 100 µM (inactive) | 22.8 µM (inactive)
C[C@]12CCC3[C@@H](CC[C@@H]4c5nonc5CC[C@]34C)C1CC[C@@H]2O (stereo partly specified) | 29.6 µM (inactive) | 28.4 µM | 25.2 µM (inactive) | 18.4 µM (inactive) | 25.5 µM (inactive) | 29.3 µM (inactive) | 23 µM (inactive) | 23.8 µM (inactive) | 19.8 µM (inactive) | 21.1 µM (inactive) | 32.7 µM (inactive) | 17.4 µM (inactive) | 30.4 µM (inactive) | 23.6 µM (inactive) | 22 µM (inactive)
COc1cc(/C=C2\NC(=S)C3Cc4c(OC)c(C)c(OC)c(OC)c4C2N3C)c(OC)c(C)c1OC (stereo unspecified) | 95.3 µM (inactive) | – | 63.5 µM (inactive) | 24.5 µM (inactive) | 50.6 µM (inactive) | 59.4 µM (inactive) | 9.38 µM (inactive) | 36.8 µM (inactive) | 22.2 µM (inactive) | > 100 µM (inactive) | 61.4 µM (inactive) | > 100 µM (inactive) | 16.5 µM (inactive) | 42.8 µM (inactive) | 38.7 µM (inactive)
Cc1ccc(NCC(=O)N2CC(=O)Nc3ccccc32)c(C)c1 | > 100 µM (inactive) | > 100 µM | – | > 100 µM (inactive) | > 100 µM (inactive) | > 100 µM (inactive) | > 100 µM (inactive) | > 100 µM (inactive) | > 100 µM (inactive) | > 100 µM (inactive) | > 100 µM (inactive) | > 100 µM (inactive) | > 100 µM (inactive) | > 100 µM (inactive) | > 100 µM (inactive)
CCOC(=O)C(C(=O)c1ccccc1-c1ccccc1C(=O)O)=P(c1ccccc1)(c1ccccc1)c1ccccc1 | 41.6 µM (inactive) | 25.7 µM | 25.4 µM (inactive) | 15.5 µM (inactive) | 17.8 µM (inactive) | 31.3 µM (inactive) | – | 32.9 µM (inactive) | 25.5 µM (inactive) | 18.7 µM (inactive) | 25 µM (inactive) | 18.9 µM (inactive) | 19.1 µM (inactive) | 38.5 µM (inactive) | 20.7 µM (inactive)
CCN(CC)CC(C)(C)C(=O)/C=C/c1cccc(/C=C/C(=O)C(C)(C)CN(CC)CC)c1 | 0.429 µM (active) | 0.461 µM | 1.36 µM (inactive) | 1.59 µM (inactive) | 1.33 µM (inactive) | 0.187 µM (active) | 0.504 µM (active) | 1.16 µM (inactive) | 1.22 µM (inactive) | 1.42 µM (inactive) | 0.366 µM (active) | 1.05 µM (active) | 0.247 µM (active) | 1.48 µM (inactive) | 0.337 µM (active)
